The text below walks through data of US9567318B2, “Substituted pyrimidine compounds and uses thereof” (Memorial Sloan-Kettering Cancer Center, priority 2009, dated 2017).

For experiment [1], the system named is MDA-MB-468 xenografted tumors. The experiment is described as follows: Tumor xenografts. As to conditions: i.t., alternate days, mice. The experiment is classed as in vivo. The method, then: (§1) FIG. 12. YK5 affects the major hallmarks of cancer: inhibits proliferation and invasiveness and arrests cancer cells in the cell cycle. (a) The indicated cancer cells were incubated with increasing concentrations of inhibitors and growth over 72 h was assessed. Y-axis values below 0% represent cell death of the starting population. Drugs were assayed in triplicate. (b) Mice (n=5) bearing MDA-MB-468 subcutaneously (s.c.) xenografted tumors that reached a volume of approximately 100-200 mm^3, were administered i.t. YK5 or vehicle as described in Methods. Tumor volume (mm^3) was estimated from caliper measurements. (c) Cells were treated for 24 h with indicated concentrations of YK5. DNA content was analyzed by propidium iodide staining and flow cytometry (left), whereas proteins by western blotting (right). (d) Hsp70 client proteins isolated by YK55-beads from SKBr3 and MDA-MB-468 extracts (500 μg) were analyzed by western blotting. […] (e) MDA-MB-231 breast cancer cells were treated for 24 h with YK5 (1 μM) and protein extracts were subjected to immunoblotting (upper) or pre-treated for 24 h with vehicle or YK5, and viable cells able to migrate through Matrigel over a 20 h period were quantified and data graphed (lower). […]
Tumor Xenografts. […] Tumor volume was determined by measurement with Vernier calipers, and tumor volume was calculated as the product of its length×width^2×0.4. […]

Experiment [2] relates to infiltrating ductal carcinoma tissue. The experiment is described as follows: Ex vivo treatment of fresh breast tumor tissue. The arrangement: species or system human. As to conditions: 5 μM, 24 h post addition.
The test system of experiment [3] is SKBr3 HER2+ breast cancer cells. The experiment can be described thus: Growth Inhibition Assay (Alamar blue), SKBr3. The class given is cell-based, human. The settings on record: Homo sapiens, SK-BR-3, 72 h. The method, then:
The IC50 values listed for some of these compounds illustrate the antiproliferative effects of the subject compounds and were obtained using the Growth Inhibition assays described herein.
Growth Inhibition Assay. Antiproliferative effects of inhibitors were evaluated using the dye Alamar blue. This reagent offers a rapid objective measure of cell viability in cell culture, and it uses the indicator dye resazurin to measure the metabolic capacity of cells, an indicator of cell viability. Briefly, cells were plated on Costar 96-well plates. For attached cells (such as SKBr3, MDA-MB-468, LNCaP, MRCS), 8,000 cells/well were used. For suspension cells (such as MOLM-13, Kasumi-1, OCI-Ly7, PBL), 20,000 cells/well were plated. Cells were allowed to incubate for 24 h at 37° C. before drug treatment. Drugs were added in triplicates at the indicated concentrations, and the plate was incubated for 72 h. Alamar Blue (440 μM) was added, and the plate read 6 h later using the Analyst GT (Fluorescence intensity mode, excitation 530 nm, emission 580 nm, with 560=dichroic mirror). Results were analyzed using the Softmax Pro software. The percentage cell growth inhibition was calculated by comparing fluorescence readings obtained from treated versus control cells, accounting for initial cell population (time zero).
On the technique in general: The colour change of resazurin is a common sign of viable cells or microbes.

The next experiment relates to MDA-MB-231 cells. The experiment is described as follows: Cell invasion assay (Boyden chamber Matrigel). The experiment is classed as cell-based, human. As to conditions: 1 μM pre-treatment 24 h, 20 h migration. The method, then:
as §1
Cell Invasion Assay. […] In summary, cells were stained with tryptan blue and counted manually with a hemacytometer. […] Cells in ten fields per membrane were counted at ×100 objective.

For orientation: IC50 means the concentration at which inhibition is half-maximal. A higher IC50 goes with lower potency. Consider `C=CC(=O)Nc1cc(N)nc(Sc2c(OC)nc(N3CCN(C)CC3)nc2OC)n1` [YK5, N-(6-amino-2-(4,6-dimethoxy-2-(4-methylpiperazin-1-yl)pyrimidin-5-ylthio)pyrimidin-4-yl)acrylamide], for which the “growth of xenografted tumors” value in experiment [1] is on record as “inhibited the growth of MDA-MB-468 xenografted tumors”. In addition, the “tumor cells dead or dying” value in experiment [2] was found to be 60%. In experiment [3], this compound gave an IC50 of 0.455 µM. Moreover, in the experiment on MDA-MB-231 cells, the “invasion through Matrigel” value was “inhibited the ability of MDA-MB-231 cells to invade through Matrigel”.
